Positions of bridges follow the written chain, without caps; N, C: chain ends. Non-standard residues stand in square brackets, D forms with d. Residues, ends and D or L forms follow the SMILES beside them. *: point of attachment. Me3N+(CH2)2O(CH2)2O(CH2)2CO = C[N+](C)(C)CCOCCOCCC(=O)*; CH2CH2OCH2CH2OCH2CH2NMe3+ = C[N+](C)(C)CCOCCOCC*; Trp(7-Me) = Cc1cccc2c(C[C@H](N)C(=O)O)c[nH]c12; X89 = COCCOCCOCC[N+](C)(CCOCCOCCOC)CC*; 2Nal = N[C@@H](Cc1ccc2ccccc2c1)C(=O)O; X45 = COCC[N+](C)(C)CCc1cn(CC*)nn1; 3Pal = N[C@@H](Cc1cccnc1)C(=O)O; X14 = C[N+](C)(C)CCc1cn(CC*)nn1; Lys(Me) = CNCCCC[C@H](N)C(=O)O; X69 = CN(CCOCC[N+](C)(C)C)CC*; X90 = COCCOCCOCC[N+](C)(C)CC*; Pen = CC(C)(S)[C@H](N)C(=O)O; X84 = CN(CCC[N+](C)(C)C)CC*; X88 = COCC[N+](C)(C)CCCC*; Thp = NC1(C(=O)O)CCOCC1; X92 = COCC[N+](C)(C)CC*; X91 = c1cc[n+](CC*)cc1; X42 = O=C(O)CCCCCCCC*; Sar = CNCC(=O)O
Experiment: Exposed Polar Surface Area (EPSA)
Type: physicochemical
Conditions: SFC on Chirex 3014 column; sample 1 mM DMSO stock; read-out: EPSA
Procedure, shortened: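 Chirex 3014 column, 35 °C, 4 mL/min; CO2/MeOH + 20 mM NH4 formate, 5→60% modifier at 20%/min. UV/MS detection. EPSA (Å^2) from retention time vs 8-standard calibration line; duplicates; 1 mM DMSO stock injected undiluted.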

| EPSA [A^2] | SMILES |
| --- | --- |
| 139 | COCC[N+](C)(C)CCCCOc1ccc(C[C@H](NC(=O)[C@H]2NC(=O)[C@H](CCCCN(C)C(C)=O)NC(=O)[C@H](Cc3c[nH]c4c(C)cccc34)NC(=O)[C@H]([C@@H](C)O)NC(=O)[C@H](CC(=O)N(C)C)NC(=O)[C@@H](NC(=O)CCOCCOCC[N+](C)(C)C)C(C)(C)SSC2(C)C)C(=O)N[C@@H](Cc2ccc3ccccc3c2)C(=O)NC2(C(=O)N[C@@H](CCCCN(C)C(C)=O)C(=O)N[C@@H](CC(N)=O)C(=O)N[C@@H](Cc3cccnc3)C(=O)N(C)CC(=O)N(C)C)CCOCC2)cc1 [compound 227, cPEG3aCO-Pen(3)-N(N(Me)2)-T-7MeW-K(NMeAc)-Pen(3)-mPEG2TMA4F-2Nal-THP-K(NMeAc)-N-3Pya-Sar-CON(Me)2] ({Me3N+(CH2)2O(CH2)2O(CH2)2CO}-[Pen]D(NMe2)T[Trp(7-Me)][Lys(Me)](Ac)[Pen]Y(X88)[2Nal][Thp][Lys(Me)](Ac)N[3Pal][Sar]-NMe2; disulfide 1-6) |
| 139 | COCC[N+](C)(C)CCOc1ccc(C[C@H](NC(=O)[C@H]2NC(=O)[C@H](CCCCN(C)C(C)=O)NC(=O)[C@H](Cc3c[nH]c4c(C)cccc34)NC(=O)[C@H]([C@@H](C)O)NC(=O)[C@H](CC(=O)N(C)C)NC(=O)[C@@H](NC(=O)CCOCCOCC[N+](C)(C)C)C(C)(C)SSC2(C)C)C(=O)N[C@@H](Cc2ccc3ccccc3c2)C(=O)NC2(C(=O)N[C@@H](CCCCN(C)C(C)=O)C(=O)N[C@@H](CC(N)=O)C(=O)N[C@@H](Cc3cccnc3)C(=O)N(C)CC(=O)N(C)C)CCOCC2)cc1 [compound 228, cPEG3aCO-Pen(3)-N(N(Me)2)-T-7MeW-K(NMeAc)-Pen(3)-mPEG2TMA2F-2Nal-THP-K(NMeAc)-N-3Pya-Sar-CON(Me)2] ({Me3N+(CH2)2O(CH2)2O(CH2)2CO}-[Pen]D(NMe2)T[Trp(7-Me)][Lys(Me)](Ac)[Pen]Y(X92)[2Nal][Thp][Lys(Me)](Ac)N[3Pal][Sar]-NMe2; disulfide 1-6) |
| 147 | CC(=O)N(C)CCCC[C@@H]1NC(=O)[C@H](Cc2c[nH]c3c(C)cccc23)NC(=O)[C@H]([C@@H](C)O)NC(=O)[C@H](CC(=O)N(C)C)NC(=O)[C@@H](NC(=O)CCOCCOCC[N+](C)(C)C)C(C)(C)SSC(C)(C)[C@@H](C(=O)N[C@@H](Cc2ccc(OCC[n+]3ccccc3)cc2)C(=O)N[C@@H](Cc2ccc3ccccc3c2)C(=O)NC2(C(=O)N[C@@H](CCCCN(C)C(C)=O)C(=O)N[C@@H](CC(N)=O)C(=O)N[C@@H](Cc3cccnc3)C(=O)N(C)CC(=O)N(C)C)CCOCC2)NC1=O [compound 231, cPEG3aCO-Pen(3)-N(N(Me)2)-T-7MeW-K(NMeac)-Pen(3)-NPyEF-2Nal-THP-K(NMeAc)-N-3Pya-Sar-CON(Me)2] ({Me3N+(CH2)2O(CH2)2O(CH2)2CO}-[Pen]D(NMe2)T[Trp(7-Me)][Lys(Me)](Ac)[Pen]Y(X91)[2Nal][Thp][Lys(Me)](Ac)N[3Pal][Sar]-NMe2; disulfide 1-6) |
| 141 | CC(=O)N(C)CCCC[C@@H]1NC(=O)[C@H](Cc2c[nH]c3c(C)cccc23)NC(=O)[C@H]([C@@H](C)O)NC(=O)[C@H](CC(=O)N(C)C)NC(=O)[C@@H](NC(=O)CCOCCOCC[N+](C)(C)C)C(C)(C)SSC(C)(C)[C@@H](C(=O)N[C@@H](Cc2ccc(OCCN(C)CCC[N+](C)(C)C)cc2)C(=O)N[C@@H](Cc2ccc3ccccc3c2)C(=O)NC2(C(=O)N[C@@H](CCCCN(C)C(C)=O)C(=O)N[C@@H](CC(N)=O)C(=O)N[C@@H](Cc3cccnc3)C(=O)N(C)CC(=O)N(C)C)CCOCC2)NC1=O [compound 234, cPEG3aCO-Pen(3)-N(N(Me)2)-T-7MeW-K(NMeAc)-Pen(3)-AEF(MePrpa)-2Nal-THP-K(NMeAc)-N-3Pya-Sar-CON(Me)2] ({Me3N+(CH2)2O(CH2)2O(CH2)2CO}-[Pen]D(NMe2)T[Trp(7-Me)][Lys(Me)](Ac)[Pen]Y(X84)[2Nal][Thp][Lys(Me)](Ac)N[3Pal][Sar]-NMe2; disulfide 1-6) |
| 149 | CC(=O)NCCCC[C@@H]1NC(=O)[C@H](Cc2c[nH]c3c(C)cccc23)NC(=O)[C@H]([C@@H](C)O)NC(=O)[C@H](CC(N)=O)NC(=O)[C@@H](NC(C)=O)C(C)(C)SSC(C)(C)[C@@H](C(=O)N[C@@H](Cc2ccc(OCCn3cc(CC[N+](C)(C)C)nn3)cc2)C(=O)N[C@@H](Cc2ccc3ccccc3c2)C(=O)NC2(C(=O)N[C@@H](CCCCNC(C)=O)C(=O)N[C@@H](CC(N)=O)C(=O)N[C@@H](Cc3cccnc3)C(=O)N(C)CC(N)=O)CCOCC2)NC1=O [compound 235] (Ac-[Pen]NT[Trp(7-Me)]K(Ac)[Pen]Y(X14)[2Nal][Thp]K(Ac)N[3Pal][Sar]-NH2; disulfide 1-6 (inferred)) |
| 159 | CC(=O)N(C)CCCC[C@@H]1NC(=O)[C@H](Cc2c[nH]c3c(C)cccc23)NC(=O)[C@H]([C@@H](C)O)NC(=O)[C@H](CC(=O)N(C)C)NC(=O)[C@@H](NC(=O)CCOCCOCC[N+](C)(C)C)C(C)(C)SSC(C)(C)[C@@H](C(=O)N[C@@H](Cc2ccc(OCCCCCCCCC(=O)O)cc2)C(=O)N[C@@H](Cc2ccc3ccccc3c2)C(=O)NC2(C(=O)N[C@@H](CCCCN(C)C(C)=O)C(=O)N[C@@H](CC(N)=O)C(=O)N[C@@H](Cc3cccnc3)C(=O)N(C)CC(=O)N(C)C)CCOCC2)NC1=O [compound 236, cPEG3aCO-Pen(3)-N(N(Me)2)-T-7MeW-K(NMeAc)-Pen(3)-Y(C9OH)-2Nal-THP-K(NMeAc)-N-3Pya-Sar-CON(Me)2] ({Me3N+(CH2)2O(CH2)2O(CH2)2CO}-[Pen]D(NMe2)T[Trp(7-Me)][Lys(Me)](Ac)[Pen]Y(X42)[2Nal][Thp][Lys(Me)](Ac)N[3Pal][Sar]-NMe2; disulfide 1-6) |
| 140 | CC(=O)N(C)CCCC[C@@H]1NC(=O)[C@H](Cc2c[nH]c3c(C)cccc23)NC(=O)[C@H]([C@@H](C)O)NC(=O)[C@H](CC(=O)N(C)C)NC(=O)[C@@H](NC(=O)CCOCCOCC[N+](C)(C)C)C(C)(C)SSC(C)(C)[C@@H](C(=O)N[C@@H](Cc2ccc(OCCN(C)CCOCC[N+](C)(C)C)cc2)C(=O)N[C@@H](Cc2ccc3ccccc3c2)C(=O)NC2(C(=O)N[C@@H](CCCCN(C)C(C)=O)C(=O)N[C@@H](CC(N)=O)C(=O)N[C@@H](Cc3cccnc3)C(=O)N(C)CC(=O)N(C)C)CCOCC2)NC1=O [compound 237, cPEG3aCO-Pen(3)-N(N(Me)2)-T-7MeW-K(NMeAc)-Pen(3)-AEF(NMePEG2a)-2Nal-THP-K(NMeAc)-N-3Pya-Sar-CON(Me)2] ({Me3N+(CH2)2O(CH2)2O(CH2)2CO}-[Pen]D(NMe2)T[Trp(7-Me)][Lys(Me)](Ac)[Pen]Y(X69)[2Nal][Thp][Lys(Me)](Ac)N[3Pal][Sar]-NMe2; disulfide 1-6) |
| 138 | COCCOCCOCC[N+](C)(C)CCOc1ccc(C[C@H](NC(=O)[C@H]2NC(=O)[C@H](CCCCN(C)C(C)=O)NC(=O)[C@H](Cc3c[nH]c4c(C)cccc34)NC(=O)[C@H]([C@@H](C)O)NC(=O)[C@H](CC(=O)N(C)C)NC(=O)[C@@H](NC(=O)CCOCCOCC[N+](C)(C)C)C(C)(C)SSC2(C)C)C(=O)N[C@@H](Cc2ccc3ccccc3c2)C(=O)NC2(C(=O)N[C@@H](CCCCN(C)C(C)=O)C(=O)N[C@@H](CC(N)=O)C(=O)N[C@@H](Cc3cccnc3)C(=O)N(C)CC(=O)N(C)C)CCOCC2)cc1 [compound 239, cPEG3aCO-Pen(3)-N(N(Me)2)-T-7MeW-K(NMeAc)-pen(3)-AEF(NMe2mPEG3)-2Nal-THP-K(NMeAc)-N-3Pya-Sar-CON(Me)2] ({Me3N+(CH2)2O(CH2)2O(CH2)2CO}-[Pen]D(NMe2)T[Trp(7-Me)][Lys(Me)](Ac)[Pen]Y(X90)[2Nal][Thp][Lys(Me)](Ac)N[3Pal][Sar]-NMe2; disulfide 1-6) |
| 135 | COCCOCCOCC[N+](C)(CCOCCOCCOC)CCOc1ccc(C[C@H](NC(=O)[C@H]2NC(=O)[C@H](CCCCN(C)C(C)=O)NC(=O)[C@H](Cc3c[nH]c4c(C)cccc34)NC(=O)[C@H]([C@@H](C)O)NC(=O)[C@H](CC(=O)N(C)C)NC(=O)[C@@H](NC(=O)CCOCCOCC[N+](C)(C)C)C(C)(C)SSC2(C)C)C(=O)N[C@@H](Cc2ccc3ccccc3c2)C(=O)NC2(C(=O)N[C@@H](CCCCN(C)C(C)=O)C(=O)N[C@@H](CC(N)=O)C(=O)N[C@@H](Cc3cccnc3)C(=O)N(C)CC(=O)N(C)C)CCOCC2)cc1 [compound 241, cPEG3aCO-Pen(3)-N(N(Me)2)-T-7MeW-K(NMeAc)-Pen(3)-AEF(NMeBismPEG3)-2Nal-THP-K(NMeAc)-N-3Pya-Sar-CON(Me)2] ({Me3N+(CH2)2O(CH2)2O(CH2)2CO}-[Pen]D(NMe2)T[Trp(7-Me)][Lys(Me)](Ac)[Pen]Y(X89)[2Nal][Thp][Lys(Me)](Ac)N[3Pal][Sar]-NMe2; disulfide 1-6) |
| 142 | CC(=O)NCCCC[C@@H]1NC(=O)[C@H](Cc2c[nH]c3c(C)cccc23)NC(=O)[C@H]([C@@H](C)O)NC(=O)[C@H](CC(=O)N(C)C)NC(=O)[C@@H](NC(=O)CCOCCOCC[N+](C)(C)C)C(C)(C)SSC(C)(C)[C@@H](C(=O)N[C@@H](Cc2ccc(OCCOCCOCC[N+](C)(C)C)cc2)C(=O)N[C@@H](Cc2ccc3ccccc3c2)C(=O)NC2(C(=O)N[C@@H](CCCCN(C)C(C)=O)C(=O)N[C@@H](CC(N)=O)C(=O)N[C@@H](Cc3cccnc3)C(=O)N(C)CC(=O)N(C)C)CCOCC2)NC1=O [compound 243, cPEG3aCO-Pen(3)-N(N(Me)2)-T-7MeW-K(Ac)-Pen(3)-APEG3F-2Nal-THP-K(NMeAc)-N-3Pya-Sar-CON(Me)2] ({Me3N+(CH2)2O(CH2)2O(CH2)2CO}-[Pen]D(NMe2)T[Trp(7-Me)]K(Ac)[Pen]Y(CH2CH2OCH2CH2OCH2CH2NMe3+)[2Nal][Thp][Lys(Me)](Ac)N[3Pal][Sar]-NMe2; disulfide 1-6) |
| 147 | COCC[N+](C)(C)CCc1cn(CCOc2ccc(C[C@H](NC(=O)[C@H]3NC(=O)[C@H](CCCCNC(C)=O)NC(=O)[C@H](Cc4c[nH]c5c(C)cccc45)NC(=O)[C@H]([C@@H](C)O)NC(=O)[C@H](CC(N)=O)NC(=O)[C@@H](NC(C)=O)C(C)(C)SSC3(C)C)C(=O)N[C@@H](Cc3ccc4ccccc4c3)C(=O)NC3(C(=O)N[C@@H](CCCCNC(C)=O)C(=O)N[C@@H](CC(N)=O)C(=O)N[C@@H](Cc4cccnc4)C(=O)N(C)CC(N)=O)CCOCC3)cc2)nn1 [compound 249] (Ac-[Pen]NT[Trp(7-Me)]K(Ac)[Pen]Y(X45)[2Nal][Thp]K(Ac)N[3Pal][Sar]-NH2; disulfide 1-6 (inferred)) |

— patent US20260022143A1, “Cyclic Peptide Inhibitors of IL-23” (JANSSEN PHARMACEUTICA NV, priority 2022, published 2026)
